{
  "source": "patent US7150974B1",
  "about": "“Parathyroid hormone receptor binding method” (The General Hospital Corporation, priority 1991, dated 2006)",
  "key": {"[1]": {"biological_target": "T1, opossum kidney PTH/PTHrP receptor clone, OK-H (Didelphis virginiana, UniProt P25107, I132F/S86P)", "T1 construct": "expressed in transfected cells; host or cells: COS cells, transient, plasmid OK-H (pcDNA I)", "T1 sequence (P25107 other isoform, or with tags, fused parts or gaps S86P/I132F)": "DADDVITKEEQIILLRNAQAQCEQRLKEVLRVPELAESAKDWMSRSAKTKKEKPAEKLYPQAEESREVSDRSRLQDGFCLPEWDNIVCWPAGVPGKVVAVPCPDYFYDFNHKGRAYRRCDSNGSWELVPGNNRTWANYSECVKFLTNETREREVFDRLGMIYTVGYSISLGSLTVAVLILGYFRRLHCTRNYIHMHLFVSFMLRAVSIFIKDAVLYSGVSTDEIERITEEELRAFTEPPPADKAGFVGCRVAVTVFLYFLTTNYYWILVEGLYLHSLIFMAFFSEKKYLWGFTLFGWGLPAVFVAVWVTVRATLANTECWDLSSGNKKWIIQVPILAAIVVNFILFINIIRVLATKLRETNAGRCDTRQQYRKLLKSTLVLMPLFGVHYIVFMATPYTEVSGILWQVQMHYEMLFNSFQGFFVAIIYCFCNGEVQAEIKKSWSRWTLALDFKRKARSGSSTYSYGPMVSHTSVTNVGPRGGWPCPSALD", "assay": "cAMP accumulation, COS cells expressing OK-H", "type": "cell-based", "conditions": "FIG. 16", "description": "Intracellular cAMP accumulation was measured as described previously (Abou-Samra et al., J. Biol. Chem. 262:1129, 1986). Cells in 24-well plates were rinsed with culture medium containing 0.1% BSA and 2 mM IBMX. The cells were then incubated with PTH or PTHrP for 15 min. at 37° C. The supernatant was removed and the cells immediately frozen by placing the whole plate in dry ice powder. Intracellular cAMP was extracted by thawing the cells in 1 ml of 50 mM HCl and analyzed by a specific radioimmunoassay using an anti-cAMP antibody (e.g., Sigma, St. Louis, Mo.). A cAMP analog (2′-O-monosuccinyl-adenosine 3′:5′-cyclic monophosphate tyrosyl methyl ester, obtained from Sigma) which was used a tracer for cAMP was iodinated by the chloramine T method. Free iodine was removed by adsorbing the iodinated cAMP analog onto a C18 Sep-pak cartridge (Waters, Milford, Mass.). After washing with dH2O, the iodinated cAMP analog was eluted from the Sep-pak Cartridge with 40% acetonitrille (ACN) and 0.1% trifluoroacetic acid (TFA). The iodinated cAMP analog was lyophilized, reconstituted in 1 ml 0.1% TFA, and injected into a C18 reverse phase HPLC column (Waters). […] The supernatant was removed and the bound radioactivity was counted in a γ-counter (Micromedic). Standard curves were calculated using the four-parameter RIA program supplied by Micromedic. […]"}, "[2]": {"biological_target": "T2, human kidney PTH/PTHrP receptor (Homo sapiens, UniProt Q03431, L389Q)", "T2 construct": "The full-length human kidney PTH/PTHrP receptor cDNA, HKrk, was constructed using the BamHI/PvuII fragment of PCR clone #2 and HK-2; expressed in transfected cells; host or cells: COS-7 cells, transient (DEAE/Dextran), pcDNAI", "T2 sequence (Q03431 27-593 L389Q)": "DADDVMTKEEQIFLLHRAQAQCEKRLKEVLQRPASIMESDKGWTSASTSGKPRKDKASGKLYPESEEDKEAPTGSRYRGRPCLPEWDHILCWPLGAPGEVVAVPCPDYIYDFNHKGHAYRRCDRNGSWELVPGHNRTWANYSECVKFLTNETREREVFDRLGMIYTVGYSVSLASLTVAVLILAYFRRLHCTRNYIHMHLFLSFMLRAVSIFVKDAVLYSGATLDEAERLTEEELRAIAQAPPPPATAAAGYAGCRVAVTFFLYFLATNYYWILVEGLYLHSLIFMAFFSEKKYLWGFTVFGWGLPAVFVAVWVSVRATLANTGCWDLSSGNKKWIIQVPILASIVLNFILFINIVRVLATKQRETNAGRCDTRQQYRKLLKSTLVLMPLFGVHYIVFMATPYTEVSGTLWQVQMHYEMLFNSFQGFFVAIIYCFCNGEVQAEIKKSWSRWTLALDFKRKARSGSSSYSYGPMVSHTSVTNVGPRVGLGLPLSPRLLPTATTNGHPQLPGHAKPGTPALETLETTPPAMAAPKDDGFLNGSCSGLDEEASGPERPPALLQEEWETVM", "assay": "cAMP accumulation, COS-7 cells expressing human kidney receptor", "type": "cell-based", "conditions": "COS-7 cells expressing human receptor, FIG. 18", "description": "Intracellular cAMP accumulation was measured as described previously (Abou-Samra et al., J. Biol. Chem. 262:1129, 1986). Cells in 24-well plates were rinsed with culture medium containing 0.1% BSA and 2 mM IBMX. […] The supernatant was removed and the cells immediately frozen by placing the whole plate in dry ice powder. Intracellular cAMP was extracted by thawing the cells in 1 ml of 50 mM HCl and analyzed by a specific radioimmunoassay using an anti-cAMP antibody (e.g., Sigma, St. Louis, Mo.). A cAMP analog (2′-O-monosuccinyl-adenosine 3′:5′-cyclic monophosphate tyrosyl methyl ester, obtained from Sigma) which was used a tracer for cAMP was iodinated by the chloramine T method. Free iodine was removed by adsorbing the iodinated cAMP analog onto a C18 Sep-pak cartridge (Waters, Milford, Mass.). After washing with dH2O, the iodinated cAMP analog was eluted from the Sep-pak Cartridge with 40% acetonitrille (ACN) and 0.1% trifluoroacetic acid (TFA). The iodinated cAMP analog was lyophilized, reconstituted in 1 ml 0.1% TFA, and injected into a C18 reverse phase HPLC column (Waters). The column was equilibrated with 10% ACN in 0.1% TFA, and eluted with gradient of 10-30% ACN in 0.1% TFA. This allows separation of the mono-iodinated cAMP analog from the non-iodinated cAMP analog. […] The standard used for the assay, adenosine 3′:5′-cyclic monophosphate, was purchased from Sigma. […]"}},
  "data": [
    {"substance": "[Nle^8,18, Tyr^34]bPTH(1-34)amide", "values": [
      {"measurement": "cAMP accumulation", "setting": "[1]", "value": "increase cAMP accumulation"},
      {"measurement": "cAMP accumulation, PTH(1-34) compared with PTHrP(1-36)", "setting": "[2]", "value": "to the same extent"}
    ]}
  ]
}
